{
  "source": "patent US20180326022A1",
  "about": "“COMPOSITIONS AND METHODS FOR IMPROVING HEART FUNCTION AND TREATING HEART FAILURE” (The Trustees of the University of Pennsylvania, priority 2017, published 2018)",
  "key": {"[1]": {"test_system": "human myocytes", "assay": "Calcium measurements in human myocytes", "format": "cell-based", "description": "(§1) Viable myocytes were concentrated by gravity (5-7 min) and supernatant was aspirated to remove dead cells. Myocytes were resuspended in NT solution containing 1 mM Ca^2+ and concentrated by gravity (5-7 min) again. Cardiomyocytes used acutely were maintained in NT solution for up to 6 hours. Myocytes were treated with 10 μM parthenolide (Fisher Scientific NC9013142 or Sigma P0667) or 10 μM colchicine (Sigma) at room temperature in NT solution for 2 hours. Experiments were performed within 6 hours of isolation, except for those involving viral transduction in cultured cells.\nCalcium measurements were carried out as described in Example 1 with the following modifications. Myocytes were loaded with 1 μM Fluo-3-acetoxymethyl ester (Invitrogen) and 15% Pluronic F127 (a poloxamer made by BASF, Florham Park, N.J., USA) for 15 minutes. Cells were scanned using a 488-nm argon ion laser in confocal line-scan mode at 0.909 ms/line. Cells were electrically paced at 0.5 Hz at room temperature for 30 s to achieve steady state; five steady-state transients of each myocyte were averaged, pooled in groups and analyzed for calcium transient properties. The measured fluorescence (F) throughout the transient was normalized to the resting fluorescence prior to stimulation (F0) to normalize for heterogeneity in dye loading."}, "[2]": {"test_system": "primary adult rat cardiomyocytes", "assay": "Cell contractility (sarcomere shortening, 1 Hz pacing)", "format": "cell-based", "settings": "rat cardiomyocytes, 1 Hz; PTL 10 μM 2 hours", "description": "Viral constructs were permitted to express for 24-72 hours with Moi=100-200. Parthenolide (Fisher Scientific NC9013142) treatment was carried out at room temperature for 2 hours at 10 μM. All experiments were performed within 48 hours of isolation, except those involving shTTL, which were allowed 72 hours to improve knockdown efficiency.\nExperiments were performed in custom-fabricated cell chambers (Ionoptix) mounted on an LSM Zeiss 780 inverted confocal microscope using a 40× oil 1.4 NA objective and transmitted light camera (IonOptix MyoCam-S). For contractility assays, cells were maintained in NT solution and electrical field stimulation was provided at 1 Hz with a myopacer (IonOptix MYP100) through platinum electrodes lowered into the bath. Sarcomere length was measured optically by Fourier transform analysis (IonWizard, IonOptix). After 15 s of 1 Hz pacing to achieve steady state, five traces were recorded and analyzed."}, "[3]": {"test_system": "isolated cardiomyocytes", "assay": "Atomic force microscopy viscoelasticity (Standard Linear Solid Model)", "format": "cell-based, rat", "settings": "mean(SEM)", "description": "The elastic modulus of isolated cardiomyocytes was measured using AFM indentation. Optical microscopy and AFM were performed simultaneously using an MFP3D AFM (Asylum Research) combined with an inverted Nikon TE-2000U microscope equipped with a Nikon 100×, 1.49 NA objective. TTL expression was determined by dsRED fluorescence captured via 532 nm laser excitation (CrystaLaser) and a CCD camera (Cascade-512B, Photometrics) at 900 ms exposure time controlled through the NIS Elements software package. […] Modulus characterization of myocytes was performed using 4.26 μm radius (R below) SiO2 microparticle epoxied to SiN cantilevers with nominal spring constant 0.03 N/m (CP-PNPS-SiO-A, Nano And More, USA). Cantilever spring constants were manually calibrated in air by thermal vibrations using the MFP3D prior to each experiment using a clean glass substrate. Inverse optical lever sensitivity was determined in myocyte buffer solution prior to each round of measurements.\nElastic moduli were determined by fitting the indentation curve to the Hertz model (Eq. 17) adjusted for a spherical indenter using the Asylum Research built in analysis software.\nE is the elastic modulus, υ, is the cell Poisson ratio and δ is the indentation depth. Transverse compression of the cardiomyocyte is performed over a range of indentation speeds and the indentation speed is divided by the total indentation depth to obtain an effective indentation rate, f. Viscosity and velocity dependent elastic moduli were then derived by fitting each myocyte to a Standard Linear Solid Model: […]"}, "[4]": {"test_system": "human myocytes", "assay": "Cell contractility of human myocytes (0.5 Hz)", "format": "cell-based", "description": "as §1\nMatTek glass bottom dish was coated 5 μl of 0.5 mg/ml laminin and air dried for 10 min. Culture medium was F-10 (1×) Nutrient Mixture (Ham) [+] L-Glutamine (Life Technologies, 11550-043) supplemented with insulin-transferrin selenium-X (Gibco, 51500-056), 20 mM HEPES, 1 μg/μl primocin (Invivogen, ant-pm-1), 0.4 mM extra CaCl2, 5% FBS, 25 μM cytochalasin D (Cayman, 11330). Viable myocytes were concentrated and a proper amount of medium was added in culture so that neighboring cells were not in direct contact. Viral constructs were permitted to express for 48 hours with Moi=100-200. Adenoviral TTL-IRES-dsRed and EMTB-3x GFP were transduced in human myocytes as previously performed in rat myocytes. Myocytes were replenished with fresh warm medium without cytochalasin D before calcium and contractility measurements.\nExperiments were performed as described in Example 1 with some modification. Contractility is measured in custom-fabricated cell chambers (Ionoptix) mounted on an LSM Zeiss 880 inverted confocal microscope using a 40× oil 1.4 NA objective and transmitted light camera (IonOptix MyoCam-S). Myoyctes were maintained in NT solution (for freshly isolated myocytes) or culture medium (without cytochalasin D, for cultured myocytes) at room temperature and electrical field stimulation was provided at 0.5 Hz with a myopacer (IonOptix MYP100) through platinum electrodes lowered into the bath. Sarcomere length was measured optically by Fourier transform analysis (IonWizard, IonOptix). After 10-30 s of 0.5 Hz pacing to achieve steady state, five traces were recorded and analyzed. If not specified, contractility data was obtained at room temperature.\nTo test whether the contractile improvement over MT destabilization remains under more physiological conditions, both 0.5 Hz and 1 Hz contractions at 37 C were recorded and analyzed in a small subset of isolated human myocytes (1 NF and 1 failing heart, FIG. 29C)."}, "[5]": {"settings": "NF human myocytes, suggested off-target effect"}},
  "data": [
    {"smiles": "C=C1C(=O)O[C@H]2[C@H]1CC/C(C)=C/CC[C@@]1(C)O[C@@H]21", "note": "[PTL, 4,5-epoxygermacra-1(10),11(13)-dien-12,6-olactone]", "values": [
      {"measurement": "[Ca2+]i amplitude", "setting": "[1]; [5]", "value": "reduced"},
      {"measurement": "[Ca2+]i transient decay phase", "setting": "[1]; [5]", "value": "prolonged"},
      {"measurement": "impaired [Ca2+]i cycling", "setting": "[1]; failing human myocytes", "value": "neither colch nor PTL treatment improved"},
      {"measurement": "F0 (baseline fluo3 intensity) compared to initial levels", "setting": "[1]; human myocytes", "value": "elevated"},
      {"measurement": "Resting SL (μm)", "setting": "[2]", "value": 1.803, "unit": "μm"},
      {"measurement": "Vmax (μm/s)", "setting": "[2]", "value": "−5.35", "unit": "μm/s"},
      {"measurement": "Vmin (μm/s)", "setting": "[2]", "value": 4.28, "unit": "μm/s"},
      {"measurement": "ΔSL (μm)", "setting": "[2]", "value": 0.201, "unit": "μm"},
      {"measurement": "η (Pa*s)", "setting": "[3]; SLSM-fit derived viscosity", "value": "38.8(8.0) Pa*s"},
      {"measurement": "E2 (Pa)", "setting": "[3]; velocity-dependent elastic modulus", "value": "215.3(25.0) Pa"},
      {"measurement": "E1 (Pa)", "setting": "[3]; velocity-independent elastic modulus", "value": "170.6(22.5) Pa"},
      {"measurement": "late phase of relaxation", "setting": "[4]; NF human myocytes, 10 μM PTL", "value": "slightly prolonging"},
      {"measurement": "restoration of lost function (contractile velocities vs NF benchmark)", "setting": "[4]; failing human myocytes", "value": "~50", "unit": "%"},
      {"measurement": "shortening amplitude and velocity, speed of relaxation", "setting": "[4]; failing human myocytes, 10 μM, 2 hours", "value": "robustly improved"}
    ]}
  ]
}
